Assay results taken from PMC9327782, “Benzoxazole derivatives as new VEGFR-2 inhibitors and apoptosis inducers: design, synthesis, in silico studies, and antiproliferative evaluation” (Journal of Enzyme Inhibition and Medicinal Chemistry, 2022).

Biological target: T1, VEGFR-2 (Homo sapiens, UniProt P35968)
T1 construct: purchased
Test: In vitro VEGFR-2 kinase assay (ELISA kit)
Format: biochemical
Protocol: The assay was applied by ELISA kits in accordance with the comprehensive description in[18]^,[33] as described in Supplementary data. […]
2. In vitro VEGFR-2 kinase assay
All the synthesized compounds were tested for its inhibitory activity against VEGFR-2. Human VEGFR-2 ELISA kit (Enzyme-Linked Immunosorbent Assay) was utilized in this test. At first, specific antibody for VEGFR-2 was seeded on a 96-well plate and 100 μL of the standard solution or the tested compound was added, all were incubated at room temperature for 2.5 h. Then washed, 100 μL of the prepared biotin antibody was added, then incubated at room temperature for additional 1 h. and washed. Then, 100 μL of streptavidin solution was added and incubated for 45 min. at room temperature. Washed again, 100 μL of TMB Substrate reagent was added and incubated for 30 min. at room temperature. 50 μL of the stop solution was added, then read at 450 […]
nm immediately. […]

T1 sequence (P35968 20-1356): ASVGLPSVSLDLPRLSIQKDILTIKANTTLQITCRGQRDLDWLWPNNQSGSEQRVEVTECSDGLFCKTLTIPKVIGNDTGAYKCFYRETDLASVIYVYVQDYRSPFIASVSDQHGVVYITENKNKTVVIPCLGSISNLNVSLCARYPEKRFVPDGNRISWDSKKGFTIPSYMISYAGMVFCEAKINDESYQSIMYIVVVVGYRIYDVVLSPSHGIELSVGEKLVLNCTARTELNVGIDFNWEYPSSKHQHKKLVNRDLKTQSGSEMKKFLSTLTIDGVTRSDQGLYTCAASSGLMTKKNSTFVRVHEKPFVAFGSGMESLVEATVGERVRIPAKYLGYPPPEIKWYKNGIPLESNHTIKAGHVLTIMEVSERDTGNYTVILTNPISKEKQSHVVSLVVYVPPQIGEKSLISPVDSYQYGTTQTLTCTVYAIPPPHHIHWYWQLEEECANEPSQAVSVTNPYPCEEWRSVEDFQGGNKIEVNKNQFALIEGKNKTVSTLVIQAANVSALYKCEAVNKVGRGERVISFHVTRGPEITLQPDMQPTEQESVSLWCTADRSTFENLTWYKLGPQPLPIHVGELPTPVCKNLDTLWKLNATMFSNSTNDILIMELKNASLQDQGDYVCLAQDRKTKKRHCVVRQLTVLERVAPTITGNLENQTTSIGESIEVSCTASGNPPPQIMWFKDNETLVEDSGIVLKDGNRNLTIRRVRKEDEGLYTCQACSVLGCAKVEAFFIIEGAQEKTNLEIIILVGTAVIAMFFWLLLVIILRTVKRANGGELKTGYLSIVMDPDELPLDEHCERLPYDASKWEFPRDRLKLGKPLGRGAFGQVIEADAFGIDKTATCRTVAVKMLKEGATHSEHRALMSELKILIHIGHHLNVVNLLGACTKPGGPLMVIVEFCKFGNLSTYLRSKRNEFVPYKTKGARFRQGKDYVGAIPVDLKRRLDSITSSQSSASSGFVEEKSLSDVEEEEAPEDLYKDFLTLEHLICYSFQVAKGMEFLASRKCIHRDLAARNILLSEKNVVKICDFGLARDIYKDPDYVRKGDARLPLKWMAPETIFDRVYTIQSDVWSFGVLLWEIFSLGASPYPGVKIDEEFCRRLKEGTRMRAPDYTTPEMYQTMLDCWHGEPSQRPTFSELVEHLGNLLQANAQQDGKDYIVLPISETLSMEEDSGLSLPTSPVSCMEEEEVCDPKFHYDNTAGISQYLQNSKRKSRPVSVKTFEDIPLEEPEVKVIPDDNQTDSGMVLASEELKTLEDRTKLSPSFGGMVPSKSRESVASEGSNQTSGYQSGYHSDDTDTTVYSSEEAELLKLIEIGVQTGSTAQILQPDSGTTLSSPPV

- IC50 (ELISA kit): 97.4 nM
- HillSlope best-fit value, VEGFR-2 (supplement raw data, curve fit): -0.4614
- LogIC50 best-fit value, VEGFR-2 (supplement raw data, curve fit): 1.988 Log (nM)
SMILES: Cc1ccc2oc(SCC(=O)Nc3ccc(C(=O)Nc4cccc(Cl)c4)cc3)nc2c1 [Compound 12l, N-(3-Chlorophenyl)-4–(2-((5-methylbenzo[d]oxazol-2-yl)thio)acetamido)benzamide]
